A short description of series [1]: hair fly-away: electrostatic charge of brushed hair tresses (Faraday pail, electrometer). Conditions: one percent aqueous solutions; hair tresses brushed or combed 20 strokes. The method, then: To test the hair fly-away characteristics of the novel bisquaternary ammonium compounds of the present invention, the following test procedure can be utilized.
The hair to be utilized is formed into six inch long, 1.5 gram weight tresses, cleaned with methanol first, then with a 1% solution of sodium lauryl sulfate followed by a rinse with distilled water. The tress is then dried in an oven at 55° C. The tresses except for the controls are then treated with the test compounds and redried at 55° C.
An electrometer (Electrometer Model 610C, Keithley Instrument Co., Cleveland, Ohio) to serve as a coulomb meter for direct measurement of charge is attached to a Faraday pail and switched on.
The test tresses are singly taken out of the drying oven, held at the tied end and brushed or combed twenty strokes alternating between front and back side of the tress as held by the operator. A clean brush or comb is utilized and the velocity with which the brush or comb is traversed through the tress is maintained constant as much as possible. Further, since the electrostatic charges are capable of being quickly dissipated into the atmosphere, the procedure consists of uniformly brushing or combing 20 strokes in a period of 10 seconds and immediately following the last stroke, the lid of the Faraday cage is opened and the tress is dropped into the Faraday pail without contacting any other object and the lid is replaced. The charge in coulombs is read from the electrometer and the tress is then removed from the Faraday pail and the instrument is reset for the next tress sample.
Since electrostatic charge buildup creates fly-away in atmospheres of low humidity, these compounds are useful to prevent said fly-away condition.

A further series has as its system Aspergillus niger. Put plainly: Minimum Inhibiting Concentration test. The series is classed as cell-based. Conditions: fungi, 25° C., 1 month. The method, then: (§1) First, 200 mg. each of the compounds, AA, CC, GG, II and MM are placed in 100 ml. of a 10% ethyl alcohol solution resulting in a concentration of 2.00 mg/ml. and then 11 serial two fold dilutions are made to a final concentration of […]. Thus, a range of concentrations of from 0.0001 mg/ml. to 2.00 mg/ml. are prepared. Separately, 1000 ml. of a standard Antibiotic Medium #3 is innoculated with 1 ml. of a 24 hour broth culture of each of the test organisms and the resulting solutions are dispersed in 2 ml. portions into 13 mm×100 mm test tubes at 4° C. Two test tubes for each of the test organisms are prepared.
(§2) Then, 0.4 ml. of each concentration of the compound to be tested is placed in each of the test tubes, which are then shaken and placed at a temperature of 35° C. for a period of 18 hours for bacteria, 25° C. for a period of 3 days for yeast, and 25° C. for a period of 1 month for fungi. The end point of the activity is determined by streaking utilizing a calibrated loop to Trypticase Soy Agar to determine the last tube (concentration) with growth and the next greatest concentration.

The subject of another series is Candida albicans. Put plainly: Minimum Inhibiting Concentration test. The series is classed as cell-based. Conditions: yeast, 25° C., 3 days; for MIC: 72 h. The procedure:
as §1, §2

A further series concerns Epidermophyton flocossum. Put plainly: Minimum Inhibiting Concentration test. The series is classed as cell-based. Conditions: fungi, 25° C., 1 month. The method, then:
as §1, §2

The next series relates to Escherichia coli. Put plainly: Minimum Inhibiting Concentration test. The series is classed as cell-based. The settings on record: 35° C., 18 hours. The procedure:
as §1, §2

For the next series, the system named is Proteus mirabilis. Put plainly: Minimum Inhibiting Concentration test. The series is classed as cell-based. The settings on record: 35° C., 18 hours. The method, then:
as §1, §2

The next series relates to Proteus vulgaris. Put plainly: Minimum Inhibiting Concentration test. Conditions: 35° C., 18 hours. The series is classed as cell-based. The procedure: as §1, §2
For the next series, the system named is Pseudomonas aeruginosa. Nature of the series: Minimum Inhibiting Concentration test. The series is classed as cell-based. The settings on record: 35° C., 18 hours. The procedure: as §1, §2
For the next series, the system named is Staphylococcus aureos. Put plainly: Minimum Inhibiting Concentration test. The series is classed as cell-based. The settings on record: 35° C., 18 hours. The procedure: as §1, §2
The test system of another series is Staphylococcus epidermis. Put plainly: Minimum Inhibiting Concentration test. Conditions: 35° C., 18 hours. The series is classed as cell-based. The method, then: as §1, §2
A further series has as its system Staphylococcus pyogenes. Nature of the series: Minimum Inhibiting Concentration test. The series is classed as cell-based. The settings on record: 35° C., 18 hours; for MIC: Staphylococcus aureus. The method, then:
as §1, §2

Series [2] deals with Trichophyton mentagrophytes. Put plainly: Minimum Inhibiting Concentration test. The series is classed as cell-based. The settings on record: fungi, 25° C., 1 month. The procedure: as §1, §2
Another series concerns rabbit eye. Nature of the series: modified Draize Test, ocular irritation. The series is classed as in vivo. The settings on record: 3.50% of compound in shampoo composition; 0.1 ml per eye, albino rabbit; control shampoo rated Severe Irritant. The method, then:
The bisquaternary ammonium compounds of the present invention can be tested for ocular irritation by the following modified Draize Test (J. H. Draize et al., Toilet Goods Assn. No. 17, May 1952, No. 1, Proc. Sci. Sect.).
An 0.1 ml. sample of a neutral composition under test is dropped into one eye of an albino rabbit, the other eye serving as a control. Six rabbits are employed for each composition. Observations are made after 1, 24, 48, 72 and 96 hours and 7 days after initial instillation; second and third instillations are made after the 24 and 48 hour readings. Results may vary from substantially no change or only a slight irritation in the appearance of the rabbit's eye after 7 days to severe irritation and/or complete corneal opacity. Ocular lesions are scored for the cornea, iris and conjunctiva with a higher number indicating greater ocular irritation and the scores are added to give a total numerical value for each reading for six rabbits and averaged. The averaged score is an indication of the irritation potential of the composition under test. Based on the averaged score, descriptive irritation evaluation may be given, e.g., none, slight, moderate, severe, as the case may be.
A shampoo composition is prepared consisting of the following ingredients:
This formulation serves as a control with three additional formulations being made with the only difference being that in each of said formulations 3.50% of distilled water is replaced with 3.50% of compound JJ, KK and LL respectively. These formulations are then tested in accordance with the above procedure and the results are shown below in Table I.

By MIC is commonly meant the least concentration at which growth counts as inhibited. Higher therefore signals weaker potency. Turning to `CCCCCCCCCCCC(=O)NCCC[N+](C)(C)CCOCC[N+](C)(C)CCCNC(=O)CCCCCCCCCCC` [CC, N,N'-di(lauramidopropyl)-N,-N,N',N'-tetramethyl-1,5(3-oxapentylene) diammonium bromide], the “charge reduction compared to the control” value in series [1] is listed as “greater than 95%”. In addition, the MIC in the series with Aspergillus niger was 125 µg/mL; with Candida albicans, 63 µg/mL; against Epidermophyton flocossum it was 62.5 µg/mL; against Escherichia coli it was 125 µg/mL; with Proteus mirabilis, < 2000 µg/mL; in the series on Proteus vulgaris, < 2000 µg/mL. The minimal inhibitory concentration (MIC) with Pseudomonas aeruginosa is 250 µg/mL; in the series with Staphylococcus aureos, 250 µg/mL; with Staphylococcus epidermis it was 125 µg/mL; in the series with Staphylococcus pyogenes, 250 µg/mL; in [2], 16 µg/mL.
As for “N,N'-di(octatridecenamidopropyl)-N,N,N',N'-tetramethyl-1,5(3-oxapentylene)-diammonium dibromide [JJ]”, the “charge reduction compared to the control” value in series [1] was “greater than 95%”. For the same molecule, the ocular irritation rating result in the series on rabbit eye was “Slight Irritant”.
“N,N'-di(octadidecenamidopropyl)-N,N,N',N'-tetramethyl-1,20 (2,5,8,11,14,17,20-heptamethyl-3,6-9,12,15,18-hexaoxaeicosylene) diammonium dibromide [II]”: the minimum inhibiting concentration in the series on Aspergillus niger was 0.500 mg/mL; in the series with Candida albicans it was 0.250 mg/mL; in the series with Epidermophyton flocossum, 0.500 mg/mL; in the series on Escherichia coli it was 0.500 mg/mL; in the series on Proteus mirabilis, < 2.000 mg/mL; with Proteus vulgaris, < 2.000 mg/mL. The minimum inhibiting concentration in the series on Pseudomonas aeruginosa was 2.000 mg/mL; in the series with Staphylococcus aureos, 2.000 mg/mL; in the series on Staphylococcus epidermis, 1.000 mg/mL; in the series with Staphylococcus pyogenes it was < 2.000 mg/mL; in [2], 0.031 mg/mL.
`CCCCCCCCCCCCCCCCCCCCCC(=O)NCCC[N+](C)(C)CCOCC[N+](C)(C)CCCNC(=O)CCCCCCCCCCCCCCCCCCCCC` [KK, N,N'-di(docosamidopropyl)-N,N,N',N'-tetramethyl-1,5(3-oxapentylene)diammonium dibromide]: the ocular irritation rating entry with rabbit eye is listed as “Slight-Moderate Irritant”.
With `CCCCCCCCCCCCCCCCCC(=O)NCC[N+](CC)(CC)CCOCC[N+](CC)(CC)CCNC(=O)CCCCCCCCCCCCCCCCC` [GG, N,N'-di(stearamidoethyl)-N,N,N',N'-tetraethyl-1,5(3-oxapentylene)diammonium dibromide], the minimum inhibitory concentration (MIC) against Aspergillus niger is 250 µg/mL; with Candida albicans, 31 µg/mL; with Epidermophyton flocossum, 250 µg/mL; with Escherichia coli, 1000 µg/mL; against Proteus mirabilis, < 2000 µg/mL; with Proteus vulgaris it was < 2000 µg/mL. The minimal inhibitory concentration (MIC) was < 2000 µg/mL in the series on Pseudomonas aeruginosa; 625 µg/mL with Staphylococcus aureos; 62.5 µg/mL in the series with Staphylococcus epidermis; < 2000 µg/mL in the series with Staphylococcus pyogenes; 16 µg/mL in series [2].
Take `CCCCCCCCCCCCCCCCCCCCCC(=O)NCCC[N+](C)(C)CCOCCOCCOCCOCCOCCOCCOCCOCCOCCOCCOCCOCC[N+](C)(C)CCCNC(=O)CCCCCCCCCCCCCCCCCCCCC.[Br-].[Br-]` [LL, N,N'-di(docosamidopropyl)-N,N,N',N'-tetramethyl-1,38(3,6,9,12,15,18,21,24,-27,30,33,36-dodeca-oxaoctatricontylene)diammonium dibromide]: the “charge reduction compared to the control” value in series [1] was “greater than 95%”. For the same molecule, the ocular irritation rating entry in the series on rabbit eye was “Slight-Moderate Irritant”.
As for `C=CCCCCCCCCC(=O)NCCC[N+](C)(C)CCCC[N+](C)(C)CCCNC(=O)CCCCCCCCC=C` [AA, N,N'-undecenylamidopropyl-N,N,N',N'-tetramethyl-1,-4-butylene diammonium bromide], the MIC against Aspergillus niger is 250 µg/mL; against Candida albicans, 250 µg/mL; with Epidermophyton flocossum, 125 µg/mL; in the series with Escherichia coli, 125 µg/mL; against Proteus mirabilis, < 2000 µg/mL; with Proteus vulgaris, 250 µg/mL. For the same molecule, the MIC was 1000 µg/mL against Pseudomonas aeruginosa; 125 µg/mL against Staphylococcus aureos; 62.5 µg/mL against Staphylococcus epidermis; 500 µg/mL against Staphylococcus pyogenes; 16 µg/mL in series [2].
